# Entries after “also recorded” stand apart in the source; their conditions may differ.
# Columns and labels:
# Assay type in all cases: in vivo, human
# [1] = Adverse events after a single dose of IV PGG without premedication
# Description: (§1) IPD changes induced by yeast soluble β-glucan were evaluated in a Phase I healthy donor trial, which included three cohorts of 12 healthy human volunteers aged 18-65 years. In Cohort 1, subjects were administered a single dose of 4 mg/kg yeast soluble β-glucan by IV infusion over 2-3 hours. In Cohort 2, subjects were administered 4 mg/kg PGG by IV infusion over 2-3 hours once weekly for 3 weeks. Half of the subjects received premedications which included low dose corticosteroids (4 mg of dexamethasone, PO) and low-dose H1 antagonists (50 mg diphenhydramine.
# In Cohort 3, subjects received either 2 mg/kg PGG or 4 mg/kg PGG by IV infusion over 1-2 hours. The subjects were administered either dose of PGG once weekly for 2 weeks, then given a 2 week wash out (no PGG) and finally received one more dose of PGG (week 5). Adverse events and complete blood counts were evaluated. In addition, whole blood and serum was evaluated for the following at various time points post-infusion: PGG binding to immune cells (monocytes, neutrophils, B-cells, DC subsets), complement activation (C5a and Sc5b9), serum cytokine/chemokine levels, IgG ABA levels, flow cytometry of immune cells, circulating immune complex formation and Quantigene analysis of transcriptional profile. Table 1 lists each subject's pre-dose IgG ABA levels, PGG dose and whether they received premedications.
# Adverse events were evaluated for subjects after a single dose of IV PGG. Table 2 lists ABA levels and adverse events for subjects that had not received premedication prior to PGG infusion.
# IL-8, MCP-1, MIP-1β = test: Cytokine and chemokine serum levels (multiplex, Luminex) after IV PGG
# Description: as §1
# Subjects were stratified/classified into subgroups based on pre-infusion ABA levels. ABA cutoff levels were selected based on prior studies and are only exemplary. Classification may include only 2 subgroups based on an IgG ABA cutoff level of 15 μg/ml, 20 μg/ml, 25, μg/ml, 30 μg/ml, 35 μg/ml, 40 μg/ml, 45 μg/ml or 50 μg/ml. Classification may also include 3, 4, 5 or more subgroups with each subgroup corresponding to a specific IgG ABA level range. For example, a 3 subgroup classification may include a Low-ABA subgroup encompassing ABA level ranges of <15 μg/ml, <20 μg/ml, <25 μg/ml or <30 μg/ml, a Mid-ABA subgroup encompassing a range having a low end ABA level of 20 μg/ml, 25 μg/ml, 30 μg/ml, 35 μg/ml, 40 μg/ml or 45 μg/ml and a high end ABA level of 30 μg/ml, 35 μg/ml, 40 μg/ml, 45 μg/ml, 50 μg/ml or 55 μg/ml, and a High-ABA subgroup encompassing ABA level ranges of >35 μg/ml, >40 μg/ml, >45 μg/ml, >50 μg/ml, >55 μg/ml, >60 μg/ml, >65 μg/ml or >70 μg/ml. […] Serum and cellular IPD markers were analyzed pre-infusion, 15 minutes, 30 minutes and 1 hour post-infusion, end of infusion (EOI) and 1 hour, 2 hours, 3 hours, 4 hours, 24 hours, 48 hours and 168 hours after EOI.
# Cytokine and chemokine serum levels were measured using Novex magnetic multiplex assay (Life Technologies) the Luminex XMAP technology. […]
# The effect of premedications on IPD responses was also evaluated. […]
# [2] = tested on: circulating immune complexes (CIC); test: Circulating immune complex (CIC) formation in serum by ELISA after IV PGG; conditions: single dose PGG IV, at EOI
# Description: as §1
# Subjects were stratified/classified into subgroups based on pre-infusion ABA levels. ABA cutoff levels were selected based on prior studies and are only exemplary. Classification may include only 2 subgroups based on an IgG ABA cutoff level of 15 μg/ml, 20 μg/ml, 25, μg/ml, 30 μg/ml, 35 μg/ml, 40 μg/ml, 45 μg/ml or 50 μg/ml. Classification may also include 3, 4, 5 or more subgroups with each subgroup corresponding to a specific IgG ABA level range. For example, a 3 subgroup classification may include a Low-ABA subgroup encompassing ABA level ranges of <15 μg/ml, <20 μg/ml, <25 μg/ml or <30 μg/ml, a Mid-ABA subgroup encompassing a range having a low end ABA level of 20 μg/ml, 25 μg/ml, 30 μg/ml, 35 μg/ml, 40 μg/ml or 45 μg/ml and a high end ABA level of 30 μg/ml, 35 μg/ml, 40 μg/ml, 45 μg/ml, 50 μg/ml or 55 μg/ml, and a High-ABA subgroup encompassing ABA level ranges of >35 μg/ml, >40 μg/ml, >45 μg/ml, >50 μg/ml, >55 μg/ml, >60 μg/ml, >65 μg/ml or >70 μg/ml. As discussed in International Published Application No. WO2015084732A1, various ABA cutoff levels may be used for reasons such as differences in soluble β-glucan immunotherapy treatments and preferences regarding inclusiveness and exclusiveness of subgroups. […] Serum and cellular IPD markers were analyzed pre-infusion, 15 minutes, 30 minutes and 1 hour post-infusion, end of infusion (EOI) and 1 hour, 2 hours, 3 hours, 4 hours, 24 hours, 48 hours and 168 hours after EOI.
# Total CIC formation was measured in serum by ELISA (Quidel).
# [3] = tested on: complement activation products, C5a and SC5b-9; test: Complement activation in plasma by ELISA after IV PGG; conditions: healthy subjects, single dose PGG IV
# Description: as §1
# Subjects were stratified/classified into subgroups based on pre-infusion ABA levels. ABA cutoff levels were selected based on prior studies and are only exemplary. Classification may include only 2 subgroups based on an IgG ABA cutoff level of 15 μg/ml, 20 μg/ml, 25, μg/ml, 30 μg/ml, 35 μg/ml, 40 μg/ml, 45 μg/ml or 50 μg/ml. […] Serum and cellular IPD markers were analyzed pre-infusion, 15 minutes, 30 minutes and 1 hour post-infusion, end of infusion (EOI) and 1 hour, 2 hours, 3 hours, 4 hours, 24 hours, 48 hours and 168 hours after EOI.
# Levels of complement activity, measured by […] (Quidel) in plasma, were determined by measuring complement activation products, C5a and SC5b-9. Levels were measured week 1 pre-infusion, 15 minutes, 30 minutes and 1 hour post-infusion, EOL 1 hour EOI and week 2 pre-infusion. […]
substance,measurement,setting,value
"β(1,6)-[poly-(1,3)-D-glucopyranosyl]-poly-β(1,3)-D-glucopyranose [PGG]",adverse events vs ABA level,[1]; no premedication,more adverse events occurred as ABA levels increased
same,infusion reaction-related adverse events (CARPA),[1]; no premedication,"observed in some, but not all, subjects with ABA levels>20 ug/ml"
same,Adverse Events (CTCAE grade),"[1]; subject 002, pre-dose ABA 34.4, no premedication",None
same,Adverse Events (CTCAE grade),"[1]; subject 004, pre-dose ABA 39.7, no premedication",None
same,Adverse Events (CTCAE grade),"[1]; subject 006, pre-dose ABA 127, no premedication",Gr 1 chills; also recorded: Gr 2 nausea/emesis; also recorded: Gr 2 chest pressure
same,Adverse Events (CTCAE grade),"[1]; subject 010, pre-dose ABA 177.9, no premedication",Gr 1 back pain; also recorded: Gr 2 chest pressure; also recorded: Gr 2 nausea
same,Adverse Events (CTCAE grade),"[1]; subject 016, pre-dose ABA 27.6, no premedication",Gr 1 headache
same,Adverse Events (CTCAE grade),"[1]; subject 022, pre-dose ABA 87.8, no premedication",Gr 1 chest pressure; also recorded: Gr 1 light headedness; also recorded: Gr 1 abdominal cramping; also recorded: Gr 2 myalgia
same,Adverse Events (CTCAE grade),"[1]; subject 025, pre-dose ABA 9.9, no premedication",None
same,Adverse Events (CTCAE grade),"[1]; subject 034, pre-dose ABA 68.0, no premedication",Gr 1 chest pressure; also recorded: Gr 1 warm sensation; also recorded: Gr 1 light headedness; also recorded: Gr 1 nausea; also recorded: Gr 1 hand paresthesia; also recorded: Gr 2 chills; also recorded: Gr 3 headache
same,Adverse Events (CTCAE grade),"[1]; subject 037, pre-dose ABA 10.4, no premedication",None
same,Adverse Events (CTCAE grade),"[1]; subject 039, pre-dose ABA 13.6, no premedication",Gr 1 headache; also recorded: Gr 1 drowsiness
same,Adverse Events (CTCAE grade),"[1]; subject 043, pre-dose ABA 32.6, no premedication",Gr 2 headache
same,Adverse Events (CTCAE grade),"[1]; subject 047, pre-dose ABA 33.6, no premedication",None
same,Adverse Events (CTCAE grade),"[1]; subject 055, pre-dose ABA 56.2, no premedication",Gr 1 nausea; also recorded: Gr 1 flushing; also recorded: Gr 2 chest pressure; also recorded: Gr 2 dyspnea; also recorded: Gr 2 low back pain; also recorded: Gr 2 headache (delayed); also recorded: Gr 2 back pain (delayed); also recorded: Gr 2 neck/shoulder
same,Adverse Events (CTCAE grade),"[1]; subject 057, pre-dose ABA 37.3, no premedication",Gr 1 diarrhea
same,Adverse Events (CTCAE grade),"[1]; subject 058, pre-dose ABA 34.0, elevated pre-dose CIC, no premedication",Gr 1 dysuria (delayed); also recorded: Gr 2 myalgia (delayed); also recorded: Gr 2 arthralgia
same,Adverse Events (CTCAE grade),"[1]; subject 067, pre-dose ABA 15.0, no premedication",Gr 1 LE stiffness
same,Adverse Events (CTCAE grade),"[1]; subject 068, pre-dose ABA 26.1, no premedication",None
same,Adverse Events (CTCAE grade),"[1]; subject 070, pre-dose ABA 58.7, no premedication",Gr 1 headache
same,PGG-mediated cytokine induction (IL-8) with premedications,"IL-8, MCP-1, MIP-1β; Mid-ABA and High-ABA subjects, dexamethasone and diphenhydramine premedication vs none",dampened
same,"increases in cytokine and chemokine serum levels, especially IL-8 and MCP-1","IL-8, MCP-1, MIP-1β; pre-dose to end of infusion, healthy subjects",consistently detected
same,"acute IPD response in IL-8, MCP-1 and MIP-1 levels","IL-8, MCP-1, MIP-1β; two High-ABA subjects, weekly dosing, after week 2 infusion",acute IPD response was seen
same,increase in CIC,[2]; High-ABA subjects,the highest increase in CIC
same,increase in CIC,[2]; Low-ABA subjects,little increase in CIC
same,increase in CIC,[2]; Mid-ABA subjects,a greater increase in CIC
same,increase in complement activation (SC5b-9 levels),[3],correlated with ABA levels with levels peaking at EOI
